Reference: PMC12190736, “Development and In Vitro Characterization of [^3H]GMC-058 as Radioligand for Imaging Parkinsonian-Related Proteinopathies” (Cells, 2025)

Tested on: fresh-frozen human brain sections
Assay: Autoradiography on fresh-frozen brain tissue sections
Format: binding
Details: for NSB: 5 µM GMC044; for Specific binding relative to displaceable binding in controls: on average
Protocol: Selections of frozen human sections (described in Table 2 and Table 3) were used for binding autoradiography. Sections were first pre-incubated for 20 min in binding buffer [50 mM Tris-HCl (pH 7.4), 120 mM NaCl, 5 mM KCl, 2 mM CaCl2, 1 mM MgCl2, and 0.1% BSA] and then incubated with [^3H]GMC-058 (specific activity 22 Ci/mmol); [^3H]GMC-073 (specific activity 23.4 Ci/mmol); or […] in binding buffer for 180 min at RT. In the pilot autoradiography experiment (Figure A1). [^3H]GMC-058 was tested at 25 and 50 nM, while [^3H]GMC-073 and [^3H]GMC-098 were each tested at 10 and 20 nM. For all other autoradiography in fresh-frozen tissue sections, 25 nM [^3H]GMC-058 was used. To determine NSB, adjacent brain sections were incubated with [^3H]-tracer mixed with 5 μM of unlabeled GMC-044. The binding reaction was stopped with two 10 min washes in washing buffer [50 mM Tris-HCl (pH 7.4) at 4 °C] and a brief dip in cold distilled water. Slides were allowed to air-dry before being placed under storage phosphor screens (Fujifilm Plate BAS-TR2025, Fujifilm, Tokyo, Japan) in imaging cassettes for 90 h together with ART0123C and ART0123B tritium standards on glass slides (American Radiolabeled Chemicals Inc., St. Louis, MO, USA). Storage phosphor screens were scanned using an Amersham Typhoon FLA-9500 phosphor imaging scanner (Cytiva, Marlborough, MA, USA), and the resulting images were analyzed using Multi Gauge 3.2 phosphor imager software (Fujifilm, Tokyo, Japan) for ROI delimitation, density calibration, and quantification. Quantitative binding data from duplicates of the total, and NSB were plotted and analyzed using graphPad Prism v10 (GraphPad Software, Boston, MA, USA). Specific binding was determined by subtracting the non-specific signal from the total signal. The toluidine blue staining of adjacent sections was used to obtain anatomical references for white- and gray-matter ROI selection. Care was taken not to include artifact signals in the ROIs analyzed. These artifacts were identified as randomly placed punctate signals appearing in both total and NSB images, and they often coincided with small folds or tears in the tissue sections.

[1] = 25 nM radioligand, gray matter of cingulate cortex, control C03
[2] = 25 nM, PD1, cingulate gyrus, GM
[3] = 25 nM, PD1, cingulate gyrus, WM
[4] = 25 nM, PD2, cingulate gyrus, GM
[5] = 25 nM, PD2, cingulate gyrus, WM
[6] = 25 nM, PD3, cingulate gyrus, GM
[7] = 25 nM, PD3, cingulate gyrus, WM
[8] = 25 nM, non-dementia control C01, cingulate gyrus, GM
[9] = 25 nM, non-dementia control C01, cingulate gyrus, WM
[10] = 25 nM, non-dementia control C02, cingulate gyrus, GM
[11] = 25 nM, non-dementia control C02, cingulate gyrus, WM
[12] = 25 nM, non-dementia control C03, cingulate gyrus, GM
[13] = 25 nM, non-dementia control C03, cingulate gyrus, WM
[14] = 50 nM radioligand, gray matter of cingulate cortex, control C03

## [3H]c1cc(N2CCN(c3ccc(NC(=O)C(C)(C)C)cc3)CC2)ccc1OC [[^3H]GMC-058, N-(4-(4-(4-methoxy-[3-3H]phenyl)piperazin-1-yl)phenyl)pivalamide]
[1]
  NSB: 37.6 ± 3.8 fmol/mg tissue equivalent
  Total Minus NSB: 20 fmol/mg
  Total binding: 57.6 ± 1.8 fmol/mg tissue equivalent
25 nM, CBD1 block 1, SFG, GM
  Specific Binding: 50 fmol/mg tissue equivalent
25 nM, CBD1 block 1, SFG, WM
  Specific Binding: 29 fmol/mg tissue equivalent
25 nM, CBD1 block 2, SFG, GM
  Specific Binding: 32 fmol/mg tissue equivalent
25 nM, CBD1 block 2, SFG, WM
  Specific Binding: 130 fmol/mg tissue equivalent
25 nM, CBD, gray matter of superior frontal gyrus
  Specific binding relative to displaceable binding in controls: three-fold
25 nM, MSA1, cerebellum, GM
  NSB (5 µM GMC044): 27.4 fmol/mg tissue equivalent
  Total Minus NSB: 19.5 fmol/mg tissue equivalent
  Total binding: 46.9 fmol/mg tissue equivalent
25 nM, MSA1, cerebellum, WM
  NSB (5 µM GMC044): 33.3 fmol/mg tissue equivalent
  Total Minus NSB: 16.8 fmol/mg tissue equivalent
  Total binding: 50.1 fmol/mg tissue equivalent
25 nM, MSA2, cerebellum, GM
  NSB (5 µM GMC044): 19.9 fmol/mg tissue equivalent
  Total Minus NSB: 10.3 fmol/mg tissue equivalent
  Total binding: 30.3 fmol/mg tissue equivalent
25 nM, MSA2, cerebellum, WM
  NSB (5 µM GMC044): 27.7 fmol/mg tissue equivalent
  Total Minus NSB: 24.8 fmol/mg tissue equivalent
  Total binding: 52.5 fmol/mg tissue equivalent
25 nM, MSA3, cerebellum, GM
  Specific Binding: 26 fmol/mg tissue equivalent
25 nM, MSA3, cerebellum, WM
  Specific Binding: 21 fmol/mg tissue equivalent
25 nM, MSA4, cerebellum, GM
  Specific Binding: 23 fmol/mg tissue equivalent
25 nM, MSA4, cerebellum, WM
  Specific Binding: 49 fmol/mg tissue equivalent
25 nM, NDE C03, cingulate cortex, GM
  Specific Binding: 15 fmol/mg tissue equivalent
25 nM, NDE C03, cingulate cortex, WM
  Specific Binding: −2 fmol/mg tissue equivalent
25 nM, NDE C04, caudate, GM
  Specific Binding: 8 fmol/mg tissue equivalent
25 nM, NDE C04, caudate, WM
  Specific Binding: −1 fmol/mg tissue equivalent
25 nM, NDE C04, globus pallidus, GM
  Specific Binding: 10 fmol/mg tissue equivalent
25 nM, NDE C04, globus pallidus, WM
  Specific Binding: 0 fmol/mg tissue equivalent
25 nM, NDE Co4, putamen, GM
  Specific Binding: 12 fmol/mg tissue equivalent
25 nM, NDE Co4, putamen, WM
  Specific Binding: 4 fmol/mg tissue equivalent
[2]
  NSB (5 µM GMC044): 42.3 fmol/mg tissue equivalent
  Total Minus NSB: 13.3 fmol/mg tissue equivalent
  Total binding: 55.6 fmol/mg tissue equivalent
[3]
  NSB (5 µM GMC044): 50.6 fmol/mg tissue equivalent
  Total Minus NSB: 1.9 fmol/mg tissue equivalent
  Total binding: 52.5 fmol/mg tissue equivalent
[4]
  NSB (5 µM GMC044): 17.1 fmol/mg tissue equivalent
  Total Minus NSB: −0.9 fmol/mg tissue equivalent
  Total binding: 16.2 fmol/mg tissue equivalent
[5]
  NSB (5 µM GMC044): 53.7 fmol/mg tissue equivalent
  Total Minus NSB: 1.6 fmol/mg tissue equivalent
  Total binding: 55.4 fmol/mg tissue equivalent
[6]
  NSB (5 µM GMC044): 42.0 fmol/mg tissue equivalent
  Total Minus NSB: 17.2 fmol/mg tissue equivalent
  Total binding: 59.3 fmol/mg tissue equivalent
[7]
  NSB (5 µM GMC044): 47.1 fmol/mg tissue equivalent
  Total Minus NSB: 8.3 fmol/mg tissue equivalent
  Total binding: 55.4 fmol/mg tissue equivalent
25 nM, PSP1, GP, GM
  Specific Binding: 102 fmol/mg tissue equivalent
25 nM, PSP1, GP, WM
  Specific Binding: 32 fmol/mg tissue equivalent
25 nM, PSP2, GP, GM
  Specific Binding: 118 fmol/mg tissue equivalent
25 nM, PSP2, GP, WM
  Specific Binding: −1 fmol/mg tissue equivalent
25 nM, PSP, gray matter of globus pallidus
  Specific binding relative to displaceable binding in controls: ten-fold
25 nM, cingulate cortex of controls and PD patients, cerebellum of MSA patients
  Specific binding versus controls: did not show clear evidence of specific binding higher than the displaceable (off-target) binding in controls
[8]
  NSB (5 µM GMC044): 60.3 fmol/mg tissue equivalent
  Total Minus NSB: −3.5 fmol/mg tissue equivalent
  Total binding: 56.8 fmol/mg tissue equivalent
[9]
  NSB (5 µM GMC044): 59.8 fmol/mg tissue equivalent
  Total Minus NSB: −2.9 fmol/mg tissue equivalent
  Total binding: 56.9 fmol/mg tissue equivalent
[10]
  NSB (5 µM GMC044): 24.6 fmol/mg tissue equivalent
  Total Minus NSB: 19.8 fmol/mg tissue equivalent
  Total binding: 44.3 fmol/mg tissue equivalent
[11]
  NSB (5 µM GMC044): 31.8 fmol/mg tissue equivalent
  Total Minus NSB: 13.6 fmol/mg tissue equivalent
  Total binding: 45.3 fmol/mg tissue equivalent
[12]
  NSB (5 µM GMC044): 28.6 fmol/mg tissue equivalent
  Total Minus NSB: 16.7 fmol/mg tissue equivalent
  Total binding: 45.3 fmol/mg tissue equivalent
[13]
  NSB (5 µM GMC044): 39.0 fmol/mg tissue equivalent
  Total Minus NSB: 9.7 fmol/mg tissue equivalent
  Total binding: 48.7 fmol/mg tissue equivalent
25 nM, two MSA cases, cerebellar gray matter
  Specific binding relative to average displaceable binding in gray matter of controls: two-fold higher
25 nM, white matter of MSA and CBD cases
  Average specific binding: 35 to 80 fmol/mg
25 nM, white matter of control cases
  Specific Binding: No specific binding
[14]
  NSB: 74.6 ± 4.1 fmol/mg tissue equivalent
  Total Minus NSB: 40 fmol/mg
  Total binding: 114.1 ± 9.3 fmol/mg tissue equivalent
5 µM GMC-044, control cingulate cortex tissue
  Binding displaced by GMC-044: ~ 65%
Cingulate cortex of healthy controls
  Binding in control tissue: negligible binding
